These are literature values, as cited in US8524198B2, “Xylitol dental maintenance system” (priority 2003, dated 2013).

For data set [1] the following is noted: 976 children aged 6-12 years, 2 years; for 2-year DMFS increment: partial substitution of sucrose by xylitol (X group) vs systemic fluoride (F group).
A further data set concerns dental plaque. As to conditions: dental plaque in vivo.
The test system of the next data set is oral microorganisms. As to conditions: pure cultures of oral microorganisms in vitro.
For data set [2] the following is noted: 3-year field study; partial substitution of sucrose by xylitol (X group).

For the molecule `OC[C@@H](O)[C@H](O)[C@@H](O)CO` [xylitol], in data set [1], the “ratio (RS) between caries incidence and the tooth surface population at risk” value was 4.5; the “2-year DMFS increment” value is 3.8. For the same molecule, the metabolized into acids result with dental plaque was “not metabolized into acids”. For the same molecule, the metabolized into acids entry in the data set on oral microorganisms is on record as “not metabolized into acids”. In addition, in data set [2], the “oral hygiene conditions, final vs base-line” value is reported as “definite improvement”.
As for `F` [fluoride], in data set [1], the “ratio (RS) between caries incidence and the tooth surface population at risk” value is 5.5; the “2-year DMFS increment” value is on record as 4.8.
